SMILES strings stand for the structures. Where only a bound is given, the exact number is not on record here.

One test deals with A549. Description: Antiproliferative activity against human A549 cells after 72 hrs by MTT assay. Type of test: functional, cell-based. The settings on record: A549, 72 h.
Test [1] deals with HL-60. Description: Antiproliferative activity against human HL60 cells after 72 hrs by MTT assay. The class given is functional, cell-based. The settings on record: HL-60, 72 h.
A further test deals with SMMC-7721. Description: Antiproliferative activity against human SMMC7721 cells by MTT assay. Type of test: functional, cell-based. On the technique in general: Tetrazolium dyes change colour on reduction, which living cells bring about.
The test system of a further test is L1210. Description: Antiproliferative activity against mouse L1210 cells by MTT assay. Type of test: functional, cell-based.
Test [2] has as its system HL-60. Description: Antiproliferative activity against human HL60 cells by MTT assay. The class given is functional, cell-based.
The test system of test [3] is MCF7. Description: Cytotoxicity against human MCF7 cells assessed as reduction in cell viability. The class given is functional, cell-based.
For a further test, the system named is SW-620. Nature of the test: Cytotoxicity against human SW620 cells assessed as reduction in cell viability. Type of test: functional, cell-based.
The next test relates to MGC-803. Nature of the test: Cytotoxicity against human MGC803 cells assessed as reduction in cell viability. The class given is functional, cell-based.
A further test deals with PC-3. Description: Cytotoxicity against human PC3 cells assessed as reduction in cell viability. The class given is functional, cell-based.
Another test deals with NCI-H460. Nature of the test: Cytotoxicity against human NCI-H460 cells assessed as reduction in cell viability. Type of test: functional, cell-based.
For another test, the system named is HepG2. Nature of the test: Cytotoxicity against human HepG2 cells assessed as reduction in cell viability. Type of test: functional, cell-based.
A further test deals with GES1. Description: Cytotoxicity against human GES-1 cells assessed as reduction in cell viability. Type of test: cell-based.
For test [4], the system named is MCF7. Nature of the test: Cytotoxicity against human MCF7 cells assessed as reduction in cell viability by MTT assay. The class given is functional, cell-based.
The next test relates to SK-MEL3. Nature of the test: Cytotoxicity against human SK-MEL-3 cells assessed as reduction in cell viability by MTT assay. Type of test: functional, cell-based.
The test system of another test is A-431. Nature of the test: Cytotoxicity against human A431 cells assessed as reduction in cell viability by MTT assay. Type of test: functional, cell-based.
Another test has as its system EJ. Description: Cytotoxicity against human EJ cells assessed as reduction in cell viability by MTT assay. Type of test: functional, cell-based.
In another test the test system is SW480. Nature of the test: Cytotoxicity against human SW480 cells assessed as reduction in cell viability by MTT assay. The class given is functional, cell-based.

For `N=C(NS(=O)(=O)c1ccc(C(F)(F)F)cc1)N1CCN(c2cc3c(cc2F)c(=O)c(C(=O)O)cn3C2CC2)CC1`, the IC50 in the test on A549 and in the test with HL-60 [1] was 0.032 to 0.161 µM in each case.
Take `O=C(O)c1cn(C2CC2)c2c(c1=O)C=C(F)C1=NN=C(c3cccc([N+](=O)[O-])c3)CN12`: the IC50 – broadly, the concentration that inhibits the measured activity by half – in the test on SMMC-7721 was 1.6 µM; with L1210, 3.2 µM; in the test with HL-60 [2], 1 to 48.6 µM.
Consider `CCn1cc(C(=O)O)c(=O)c2cc(F)c(N3CCN(C(=N)NS(=O)(=O)c4cccc(Cl)c4)CC3)cc21`, for which the IC50 in the test on A549 and in the test with HL-60 [1] was 0.032 to 0.161 µM each time.
For the compound `N=C(NS(=O)(=O)c1ccccc1)N1CCN(c2cc3c(cc2F)c(=O)c(C(=O)O)cn3C2CC2)CC1`, the IC50 in the test with A549 and with HL-60 [1] was 0.032 to 0.161 µM each time.
For the compound `Cc1ccccc1C1=NN=C2C(F)=Cc3c(n(C4CC4)cc(C(=O)O)c3=O)N2C1`, the half-maximal inhibitory concentration (IC50) in the test on SMMC-7721, in the test on L1210 and with HL-60 [2] was 1 to 48.6 µM each time.
Take `COc1ccc(C2=NN=C3C(F)=Cc4c(n(C5CC5)cc(C(=O)O)c4=O)N3C2)cc1`: the IC50 in the test on SMMC-7721, in the test on L1210 and in the test on HL-60 [2] was 1 to 48.6 µM in each case.
Turning to `CCn1cc(C(=O)O)c(=O)c2cc(F)c(N3CCN(C(=N)NS(=O)(=O)c4ccccc4C(F)(F)F)CC3)cc21`, the IC50 in the test on A549 and in the test on HL-60 [1] was 0.032 to 0.161 µM each time.
As to `O=C(O)c1cn(C2CC2)c2c(c1=O)C=C(F)C1=NN=C(c3ccc(F)cc3)CN12`, the IC50 with SMMC-7721, in the test on L1210 and with HL-60 [2] was 1 to 48.6 µM each time.
As to `CCn1cc(C(=O)O)c(=O)c2cc(F)c(N3CCN(C(=N)NS(=O)(=O)c4ccc(C)cc4)CC3)cc21`, the IC50 with A549 and with HL-60 [1] was 0.032 to 0.161 µM throughout.
Regarding `O=C(O)c1cn(C2CC2)c2c(c1=O)C=C(F)C1=NN=C(c3ccc(O)cc3)CN12`, the IC50 in the test with SMMC-7721, in the test with L1210 and in the test on HL-60 [2] was 1 to 48.6 µM throughout.
With `N=C(NS(=O)(=O)c1ccccc1C(F)(F)F)N1CCN(c2cc3c(cc2F)c(=O)c(C(=O)O)cn3C2CC2)CC1`, the IC50 in the test with A549 and in the test with HL-60 [1] was 0.032 to 0.161 µM in each case.
Turning to `Nc1cccc(C2=NN=C3C(F)=Cc4c(n(C5CC5)cc(C(=O)O)c4=O)N3C2)c1`, the IC50 with SMMC-7721, with L1210 and with HL-60 [2] was 1 to 48.6 µM each time.
Consider `N=C(NS(=O)(=O)c1ccccc1Cl)N1CCN(c2cc3c(cc2F)c(=O)c(C(=O)O)cn3C2CC2)CC1`, for which the IC50 in the test on A549 and with HL-60 [1] was 0.032 to 0.079 µM throughout.
In the case of `CCn1cc(C(=O)O)c(=O)c2cc(F)c(N3CCN(C(=N)NS(=O)(=O)c4ccccc4Cl)CC3)cc21`, the IC50 in the test on A549 and in the test on HL-60 [1] was 0.032 to 0.079 µM throughout.
With `O=C(O)c1cn(C2CC2)c2c(c1=O)C=C(F)C1=NN=C(c3cccc(Cl)c3)CN12`, the IC50 in the test on SMMC-7721, in the test with L1210 and in the test with HL-60 [2] was 1 to 48.6 µM throughout.
Consider `Cc1ccc(C2=NN=C3C(F)=Cc4c(n(C5CC5)cc(C(=O)O)c4=O)N3C2)cc1`, for which the IC50 with SMMC-7721, in the test with L1210 and with HL-60 [2] was 1 to 48.6 µM each time.
For `N=C(NS(=O)(=O)c1cccc(Cl)c1)N1CCN(c2cc3c(cc2F)c(=O)c(C(=O)O)cn3C2CC2)CC1`, the IC50 with A549 and in the test on HL-60 [1] was 0.032 to 0.161 µM in each case.
In the case of `N=C(NS(=O)(=O)c1ccc(Cl)cc1)N1CCN(c2cc3c(cc2F)c(=O)c(C(=O)O)cn3C2CC2)CC1`, the IC50 with A549 and in the test on HL-60 [1] was 0.032 to 0.161 µM throughout.
`CCn1cc(C(=O)O)c(=O)c2cc(F)c(N3CCN(C(=N)NS(=O)(=O)c4ccc(C(F)(F)F)cc4)CC3)cc21`: the IC50 in the test with A549 and with HL-60 [1] was 0.032 to 0.161 µM throughout.
As to `C[C@H]1COc2c(N3CCN(C)CC3)c(F)cc3c(=O)c(-c4nnc(NC(=O)CCCCCCCC(=O)Nc5ccccc5N)s4)cn1c23`, the IC50 in the test on MCF7 [3], in the test with SW-620, in the test with MGC-803, in the test on PC-3, in the test with NCI-H460 and in the test on HepG2 was 0.046 to 0.203 µM throughout. Besides, the IC50 in the test on GES1 was greater than 81.5 µM.
For the compound `O=C(O)c1cn(C2CC2)c2c(c1=O)C=C(F)C1=NN=C(c3ccc(Cl)cc3)CN12`, the IC50 in the test on SMMC-7721, with L1210 and with HL-60 [2] was 1 to 48.6 µM throughout.
Take `O=C(O)c1cn(C2CC2)c2c(c1=O)C=C(F)C1=NN=C(c3ccccc3)CN12`: the IC50 with SMMC-7721, in the test on L1210 and in the test with HL-60 [2] was 1 to 48.6 µM in each case.
As to `Nc1ccc(C2=NN=C3C(F)=Cc4c(n(C5CC5)cc(C(=O)O)c4=O)N3C2)cc1`, the IC50 in the test on SMMC-7721, in the test on L1210 and in the test on HL-60 [2] was 1 to 48.6 µM throughout.
Take `C[C@H]1COc2c(N3CCN(C)CC3)c(F)cc3c(=O)c(-c4nnc(NC(=O)CCCCCCCCC(=O)Nc5ccccc5N)s4)cn1c23`: the IC50 in the test with MCF7 [3], with SW-620, with MGC-803, in the test on PC-3, in the test with NCI-H460 and with HepG2 was 0.046 to 0.203 µM throughout. Also, the IC50 in the test with GES1 was greater than 81.5 µM.
Turning to `O=C(O)c1cn(C2CC2)c2c(c1=O)C=C(F)C1=NN=C(c3ccc([N+](=O)[O-])cc3)CN12`, the results for the IC50 in the test on SMMC-7721, in the test with L1210 and in the test with HL-60 [2] were 1 µM, 3.5 µM and 1 to 48.6 µM, respectively.
In the case of `COc1ccccc1C1=NN=C2C(F)=Cc3c(n(C4CC4)cc(C(=O)O)c3=O)N2C1`, the IC50 in the test with SMMC-7721, in the test on L1210 and with HL-60 [2] was 1 to 48.6 µM in each case.
On to `COc1ccc(C2=NN=C3C(F)=Cc4c(n(C5CC5)cc(C(=O)O)c4=O)N3C2)cc1OC`, for which the IC50 with SMMC-7721, in the test on L1210 and with HL-60 [2] was 1 to 48.6 µM in each case.
With `CCn1cc(C(=O)O)c(=O)c2cc(F)c(N3CCN(C(=N)NS(=O)(=O)c4ccccc4)CC3)cc21`, the IC50 in the test on A549 and with HL-60 [1] was 0.032 to 0.161 µM throughout.
With `CCn1cc(C(=O)O)c(=O)c2cc(F)c(N3CCN(C(=N)NS(=O)(=O)c4ccc(Cl)cc4)CC3)cc21`, the IC50 in the test on A549 and with HL-60 [1] was 0.032 to 0.161 µM throughout.
Turning to `O=C(O)c1cn(C2CC2)c2c(c1=O)C=C(F)C1=NN=C(c3ccccc3F)CN12`, the IC50 in the test with SMMC-7721, in the test with L1210 and with HL-60 [2] was 1 to 48.6 µM each time.
For the compound `O=C(O)c1cn(C2CC2)c2c(c1=O)C=C(F)C1=NN=C(c3ccc(Br)cc3)CN12`, the IC50 in the test on SMMC-7721, in the test with L1210 and with HL-60 [2] was 1 to 48.6 µM each time.
For the compound `Cc1ccc(S(=O)(=O)NC(=N)N2CCN(c3cc4c(cc3F)c(=O)c(C(=O)O)cn4C3CC3)CC2)cc1`, the IC50 in the test on A549 and in the test on HL-60 [1] was 0.032 to 0.161 µM each time.
In turn, `CCc1c2c(nc3ccc(OC(=O)N4CCC(N5CCCCC5)CC4)cc13)-c1cc3c(c(=O)n1C2)COC(=O)[C@]3(O)CC` [IRINOTECAN] returned an IC50 with HL-60 [1] of 0.032 to 0.044 µM.
On to `CCn1cc(C(=O)O)c(=O)c2cc(F)c(N3CCNCC3)cc21` [NORFLOXACIN], for which the IC50 in the test on MCF7 [4] was 137 to 238 µM; in the test with SK-MEL3 it was 137 to 238 µM; with A-431, 137 to 238 µM; in the test with EJ, 137 to 238 µM; in the test on SW480, 137 to 238 µM; in the test on A549 it was greater than 0.302 µM. Besides, in the test on HL-60 [1], the IC50 was greater than 0.302 µM.

Source of the values: ChEMBL document CHEMBL4613209, “Quinolone hybrids and their anti-cancer activities: An overview” (Eur J Med Chem, 2019).
